According to ChEMBL document CHEMBL2434923, “Synthesis of quinoidal molecules: strategies towards bioactive compounds with an emphasis on lapachones” (Eur J Med Chem, 2013):
One block for each compound: values may come before it.

Legend:
[1] = Cytotoxicity against human HepG cells; type: functional, cell-based
HeLa = assay: Cytotoxicity against human HeLa cells; type: functional, cell-based
KB = assay: Cytotoxicity against human KB cells; type: functional, cell-based
Trypanosoma cruzi [2] = assay: Antitrypanosomal activity against Trypanosoma cruzi after 24 hrs; type: functional, organism-based
Trypanosoma cruzi [3] = assay: Antitrypanosomal activity against Trypanosoma cruzi; type: functional, organism-based

IC50 (Trypanosoma cruzi [2]): 325 µM
Compound: CC1(C)CCc2c(c3ccccc3c3ncoc23)O1

IC50 (Trypanosoma cruzi [3]): 15.4 µM
Compound: CC1(C)CCc2c(c3ccccc3c3nc(-c4c[nH]c5ccccc45)[nH]c23)O1

IC50 (Trypanosoma cruzi [2]): 284 µM
Compound: CC1(C)CCc2c(c3ccccc3c3nc(-c4ccccc4)oc23)O1

Further lines, the compound ahead of its results:

Compound: O=C1C(=O)c2ccccc2C2=C1CCCO2
IC50 [1]: 0.92 µM | IC50 (HeLa): 0.92 µM | IC50 (KB): 0.92 µM

Compound: CC1(C)CCc2c(c3ccccc3c3nc(-c4ccccc4)[nH]c23)O1
IC50 (Trypanosoma cruzi [3]): 39.4 µM

Compound: Cc1ccc(-c2nc3c([nH]2)c2c(c4ccccc43)OC(C)(C)CC2)cc1
IC50 (Trypanosoma cruzi [3]): 15.5 µM

Compound: O=C1C(=O)c2ccccc2C2=C1CCO2
IC50 [1]: 0.92 µM | IC50 (HeLa): 0.92 µM | IC50 (KB): 0.92 µM
